From patent US5346814A, “Method of detecting cell response to cell-damaging energy” (Board of Trustees of the Leland Stanford Jr. University, priority 1992, dated 1994)
“Also recorded” adds a separate entry of the source.

What was measured:
[1] = tested on: voltage-dependent potassium currents in RIF-1 cells; assay: Whole-cell voltage-clamp recording of heat-inducible potassium currents in DMSO-treated RIF-1 cells; type: cell-based, murine; conditions: RIF-1 cells grown in 2% DMSO
Experimental: (§1) Voltage-Clamp Recordings.
The potassium currents of RIF-1 cells grown in the presence of 2% DMSO as above (Example 7) were determined in the presence and absence of 20 mM TEA following heating of the cells at 45° C. for 10 minutes, as in Example 2.

RIF-1 cells = assay: Clonogenic survival assay after heating at 45° C., RIF-1 cells; type: cell-based, murine
Experimental: RIF-1 cells were grown at 37° C. in RPMI-1640 medium supplemented with 10% FBS and 2% (v/v) DMSO (dimethylsulfoxide). After seven days of growth, the medium was replaced with DMSO-free medium, and the heat sensitivity of the cells in the presence and absence of 20 mM TEA was determined by clonogenic assay as in Example 4. The results are shown in FIGS. 7A and 7B, with survival data for non-DMSO-treated RIF-1 cells shown for comparison.

HSP70 = assay: Western blot of HSP70 polypeptide levels in RIF-1 cells (N-27 antibody); type: cell-based, murine
Experimental: Western Blot Analysis In general, following separation of cellular proteins by sodium dodecyl sulfate (SDS)-polyacrylamide gel electrophoresis, separated proteins were electroblotted onto a nitrocellulose membrane using a 25 mM Tris-HCl/192 mM glycine/20% (v/v) methanol transfer buffer (pH 8.3) in a Trans-Blot apparatus (Bio-Rad, Richmond, Calif.) at 15 V and 100 mA for 12 to 14 h. The blot was blocked in 5% nonfat dry milk in TBS (50 mM Tris containing 0.2 M NaCl, pH 7.4) at room temperature for 1h; this step and all following steps were done with continuous agitation. The primary antibody was diluted 1:200 in 3% nonfat dry milk in TBS, and the blot was incubated for 16 to 24 h at 4° C. […]
RIF-1 cells were grown for 7 days in the presence of 2% DMSO as in Example 9. After the seventh day, cells were heated at 45° C. for 10 min, and were analyzed either immediately by SDS gel/Western blot analysis, or after an additional 18 hour growth period at 37° C. to allow synthesis of heat-inducible HSP70 polypeptides. […]
In a parallel set of experiments, heating of the mock- and gene-transfectedcells was performed in the presence or absence of 20 mM TEA, and the expression of HSP70 proteins was determined by immunoblot analysis, using the HSP70-specific N-27 antibody as in Example 10.

[2] = tested on: K+ channel proteins recognized by antibody ShA-3; assay: Western blot of K+ channel proteins in RIF-1 cells (ShA-3 antibody); type: cell-based, murine; conditions: RIF-1 cells grown in 2% DMSO for 3, 5, 7 days
Experimental: Western Blot Analysis In general, following separation of cellular proteins by sodium dodecyl sulfate (SDS)-polyacrylamide gel electrophoresis, separated proteins were electroblotted onto a nitrocellulose membrane using a 25 mM Tris-HCl/192 mM glycine/20% (v/v) methanol transfer buffer (pH 8.3) in a Trans-Blot apparatus (Bio-Rad, Richmond, Calif.) at 15 V and 100 mA for 12 to 14 h. The blot was blocked in 5% nonfat dry milk in TBS (50 mM Tris containing 0.2 M NaCl, pH 7.4) at room temperature for 1h; this step and all following steps were done with continuous agitation. The primary antibody was diluted 1:200 in 3% nonfat dry milk in TBS, and the blot was incubated for 16 to 24 h at 4° C. The blot was washed with TBS three times for 10 min per wash, and incubated for 2 h at room temperature with a 1:500 dilution of alkaline phosphatase-conjugated antispecies antibody. After washing with TBS as above, the blot was developed by incubation for 20 min in a solution containing 3-hydroxy-2-naphthoic acid 2,4-dimethylanilide phosphate (1 μg/ml ) and fast red (2 μg/ml) in TBS buffer. The developed blot was washed in distilled, deionized water to stop the color reaction.
RIF-1 and TR-4 cells were grown in exponential phase at 37° C. in RPMI-1640 medium supplemented with 10% FBS. […]

[3] = tested on: voltage-dependent potassium currents in A549 cells; assay: Whole-cell voltage-clamp recording of radiation-induced K+ currents in A549 cells; type: cell-based, human
Experimental: as §1
In a second study, to determine whether the induced currents -were affected by the presence of TEA, A549 cells were exposed to 150 cGy of 137Cs γ-irradiation, and the radiation-induced currents were measured under three different conditions: (a) directly after irradiation, (b) after replacement of the bath solution with medium containing 20 mM TEA and (c) after the TEA solution of step (b) had been replaced with TEA-free medium.
A549 cells grown as described in the Materials and Methods section were preincubated for 1 h in medium containing 20 mM N-acetylcysteine (NAC) (Schreck et al., 1991). The cells, still in the presence of NAC, were then irradiated (150 cGy), and the induced currents were recorded. The results are shown in FIG. 19 (open circles, irradiation without NAC preincubation; open triangles, preincubation with 20 mM NAC; solid circles, non-irradiated control cells).

A549 cells = conditions: 20 mM TEA in cell medium during irradiation, doses greater than about 200 cGy
Experimental: γ-irradiation. Cells were irradiated at room temperature using a ^137 [Cs] source at a dose rate of 150 cGy/min. The ^137 [Cs] source consisted of a Mark I irradiator (model 30, 2000 Ci ^137 [Cs]) from J. L. Shepherd and Associates (Glendale, Calif.). Unless noted otherwise, the cells were incubated at 37° C. after irradiation for further characterization.
In another experiment, cell survival of A549 cells was measured as a function of ^137 Cs irradiation dosages (0-1000 cGy) in the presence or absence of 20 mM TEA in the cell medium during irradiation.

heat shock factor (HSF) = tested on: heat shock factor (HSF)
Experimental: To determine whether the presence of TEA during heating prevented the activation of heat shock factor (HSF), RIF-1 and TR-4 cells grown as in Example 1 were heated at 45° C. for 15-40 minutes in the presence or absence of 20 mM TEA in the medium. After being washed with fresh medium (no TEA), the cells were harvested, and gel retardation assays were performed as described by Zimarino et al. (1987), except that the electrophoresis was performed on a 4.5% native polyacrylamide gel in 0.5X TBE buffer (45 mM Tris-borate, 1 mM EDTA) at 140 V at room temperature for 2.5 h. The gel was fixed by soaking in 7% acetic acid for 5 min, rinsed briefly in distilled water, and dried on Whatman 3 MM chromatography paper. The gel was then autoradiographed by exposing Kodak XAR-2 film to the gels at -70° C. with intensifying screens (Cronex Lighting Plus, Dupont).

TR-4 cells = conditions: 20 mM TEA during 45° C. 40 min heating step and/or 12 h 37° C. incubation
Experimental: The development of thermotolerance in TR-4 cells in the presence or absence of 20 mM TEA was assessed by heating the cells at 45° C. for 40 min, followed by a 12 h incubation at 37° C. (Hahn and van Kersen, 1988), and assessment of cell survival following heating and clonogenic assay as described in Example 4. Five groups of TR-4 cells (a to e) were examined, differing only as to which steps of the procedure included TEA in the cell medium.

[4] = tested on: voltage-dependent potassium channel currents in TR-4 cells; conditions: 20 mM TEA in cell medium during current measurement; TR-4 cells heated 45° C. 10 min
Experimental: Voltage-Clamp Recordings. Whole-cell recording was performed by voltage clamp analysis as described by Hamill et al. (1981). In general, prior to whole cell recording, the cell medium was replaced with serum-free medium to ensure a better giga-ohm seal. Glass electrodes were prepared using a vertical pipette puller (model P30 from Sutter Instruments, Calif.). The tip diameter to be achieve depended upon the size of the cell-type being examined, but was generally between about 0.5 and 1 μm. Glass electrodes having a tip resistance of 3-7 Mohms were sylgarded (with Sylgard, Dow Chemical) and backfilled with a solution containing 140 mM KCl, 2 mM MgCl2, 11 mM EGTA, 1 mM CaCl2, and 10 mM Hepes, pH 7.2. […] The membrane seal resistance was determined from the reduction in voltage of the test pulse.
Membrane currents were filtered at 2 kHz using a 4-pole low pass Bessel filter before sampling with a 12-bit digital-analog converter controlled by a Labmaster board (Scientific Solutions) in an IBM AT computer. Leakage currents were subtracted from the total currents measured at each voltage either by using a p,p/4 algorithm (Armstrong and Bezanilla, 1974) built into the software (INDEC Systems, Santa Cruz, Calif.), or after determining the linear component from the current-voltage (I-V) relation near the holding potential of -75 mV. […]

[5] = tested on: voltage-dependent potassium currents in A549 cells; assay: Whole-cell voltage-clamp recording of K+ currents in non-irradiated A549 cells after chemical treatment; type: cell-based, human
Experimental: Voltage-Clamp Recordings. Whole-cell recording was performed by voltage clamp analysis as described by Hamill et al. (1981). In general, prior to whole cell recording, the cell medium was replaced with serum-free medium to ensure a better giga-ohm seal. […] Glass electrodes having a tip resistance of 3-7 Mohms were sylgarded (with Sylgard, Dow Chemical) and backfilled with a solution containing 140 mM KCl, 2 mM MgCl2, 11 mM EGTA, 1 mM CaCl2, and 10 mM Hepes, pH 7.2. […] A test pulse of 20 mV was applied, and the cell was then aspirated against the tip of the microelectrode. The membrane seal resistance was determined from the reduction in voltage of the test pulse.
Membrane currents were filtered at 2 kHz using a 4-pole low pass Bessel filter before sampling with a 12-bit digital-analog converter controlled by a Labmaster board (Scientific Solutions) in an IBM AT computer. Leakage currents were subtracted from the total currents measured at each voltage either by using a p,p/4 algorithm (Armstrong and Bezanilla, 1974) built into the software (INDEC Systems, Santa Cruz, Calif.), or after determining the linear component from the current-voltage (I-V) relation near the holding potential of -75 mV. The limit of sensitivity of the current measurements in these experiments was about 50-60 pA.

Compound: C[S+](C)[O-] [DMSO, dimethylsulfoxide]
- voltage-dependent potassium currents in DMSO-cultured cells after heating ([1]; heated 45° C. 10 min): exhibited voltage-dependent potassium currents
- heat resistance of cells cultured in DMSO (RIF-1 cells; RIF-1 cells cultured in 2% (v:v) DMSO for seven days, then heated at 45° C.): significantly more heat resistant
- effect on level of cellular HSP70 (HSP70; RIF-1 cells grown 7 days in 2% DMSO, heated 45° C. 10 min, analyzed directly or after 18 hour growth): no effect on the level of cellular HSP70
- expression of K+ channel proteins recognized by ShA-3 antibody [2]: expressed at higher levels than in cells grown without DMSO; also recorded: increased with increasing duration of exposure

Compound: CC(=O)N[C@@H](CS)C(=O)O [N-acetylcysteine]
- effect on induction of potassium currents by irradiation ([3]; 20 mM, 1 h preincubation and present during 150 cGy irradiation): effective to substantially reduce current induction

Compound: CC[N+](CC)(CC)CC.[Cl-] [TEA, Tetraethylammonium chloride]
- effect on heat-induced currents in DMSO-cultured cells ([1]; 20 mM TEA in cell solution during current measurements): virtually abolished the currents
- effect on radiation-induced potassium currents ([3]; 20 mM TEA after 150 cGy 137Cs irradiation): reversible inhibition; also recorded: could be inhibited by TEA
- effect on survival rate after heating (RIF-1 cells; 20 mM TEA during heating at 45° C. for 0-100 min, RIF-1 cells): no effect on the survival rate of the RIF-1 cells; also recorded: no effect on the survival rate of RIF-1 cells
- effect on heat resistance of DMSO-cultured cells (RIF-1 cells; 20 mM TEA in medium during heating, RIF-1 cells cultured 7 days in 2% DMSO): diminished heat resistance
- effect on cytotoxicity of 137Cs irradiation (A549 cells): cytotoxicity was increased somewhat
- effect on heat-induced activation of HSF (heat shock factor (HSF)): eliminated most or all of the heat-induced activation of HSF
- effect on levels of activated HSF (heat shock factor (HSF)): no effect on the levels of activated HSF
- inhibitory effect on expression of HSP70 (constitutive and inducible forms) (HSP70; 20 mM TEA during heating 10 min 45° C., ShakerB-transfected vs mock-transfected RIF-1 cells): greater in the cells transfected with the ShakerB gene than in mock transfected cells; also recorded: greater in the cells transfected with the ShakerB gene than in the mock-transfected cells
- effect on development of thermotolerance (TR-4 cells): little effect on the development of thermotolerance
- effect on heat-induced voltage-dependent potassium currents [4]: abolished nearly all detectable current

Compound: Cc1cn([C@H]2C[C@H](O)[C@@H](CO)O2)c(=O)[nH]c1=O [[^3 H]thymidine]
- induction of potassium currents ([5]; 2 μCi/ml for 16-18 hours prior to whole-cell recording): No potassium currents were observed

Compound: OO [Hydrogen peroxide, hydrogen peroxide]
- induction of voltage-dependent potassium current ([5]; 3.0 μM final concentration in cell medium, measured within 30 seconds): sizeable voltage-dependent current
